Values of other authors as cited in patent US9272037B2, “Method to treat premature ejaculation in humans” (priority 2005, dated 2016).

How the values were obtained:
child = conditions: inadvertent administration of 4 mg/kg to a child
[1] = for accumulation during multiple dose treatment: multiple dose treatment with tramadol
[2] = single oral dose of tramadol 100 mg
μ-opiate receptors = μ-opiate receptors (Homo sapiens, UniProt P35372)
[3] = biological target: phosphodiesterase type 5 (PDE5) (Homo sapiens, UniProt O76074); conditions: PDE5 versus PDE6
[4] = oral, Viagra formulation

μ-opiate receptors, sequence (P35372 whole entry): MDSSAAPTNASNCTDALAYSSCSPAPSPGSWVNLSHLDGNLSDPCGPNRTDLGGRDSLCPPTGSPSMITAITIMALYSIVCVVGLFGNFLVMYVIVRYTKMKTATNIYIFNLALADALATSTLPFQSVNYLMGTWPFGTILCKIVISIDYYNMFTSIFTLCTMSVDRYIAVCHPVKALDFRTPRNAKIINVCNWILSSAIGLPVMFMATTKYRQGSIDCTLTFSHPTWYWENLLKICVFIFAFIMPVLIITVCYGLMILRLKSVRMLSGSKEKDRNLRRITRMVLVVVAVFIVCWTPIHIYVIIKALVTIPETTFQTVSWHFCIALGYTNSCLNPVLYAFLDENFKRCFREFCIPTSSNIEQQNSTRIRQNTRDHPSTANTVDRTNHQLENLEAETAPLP

SMILES: COc1cccc(C2(O)CCCCC2CN(C)C)c1 (racemic) [tramadol, (+/−)-trans (RR,SS)-2-[(di-methylamino)methyl]-1-(3-methoxyphenyl)cyclohexanol]
- adverse event after overdose (child): seizure activity
- accumulation during multiple dose treatment [1]: approximately 2 fold
- time to peak serum concentrations ([1]; oral administration): ≤ 2 h
- duration of the analgesic effect [2]: about 6 hours
- affinity for μ-opiate receptors, fold less than codeine (μ-opiate receptors; versus codeine): 10 fold
- affinity for μ-opiate receptors, fold less than d-propoxyphene (μ-opiate receptors; versus d-propoxyphene): 100 fold
- affinity for μ-opiate receptors relative to dextromethorphan (μ-opiate receptors; versus dextromethorphan): equivalent to dextromethorphan
- affinity for μ-opiate receptors, fold less than morphine (μ-opiate receptors; versus morphine): 6,000 fold

SMILES: CN(C)C[C@H]1CCCC[C@]1(O)c1cccc(O)c1 [O-desmethyltramadol (M1), O-desmethyltramadol]
- accumulation during multiple dose treatment [1]: approximately 2 fold
- half-life ([1]; single oral dose of 100 mg tramadol): 9 h

SMILES: Cn1c(=O)c2c(ncn2C)n(C)c1=O [caffeine, 3,7-dihydro-1,3,7-trimethyl-1H-purine-2,6-dione]
- time to maximal plasma concentrations (after oral, rectal or parenteral administration): ≤ 1 h
- half-life in plasma (in vivo): 3 to 7 h
- amount needed to affect sleep significantly (humans): more than 200 mg

SMILES: CCCc1nn(C)c2c(=O)[nH]c(-c3cc(S(=O)(=O)N4CCN(C)CC4)ccc3OCC)nc12 [sildenafil, 1-[[3-(6,7-dihydro-1-methyl-7-oxo-3-propyl-1H-pyrazolo[4,3-d]pyrimidin-5-yl)-4-ethoxyphenyl]sulfonyl]-4-methyl piperazine]
- potency for PDE5 compared to PDE6 [3]: about 10 fold
- absolute bioavailability [4]: about 40%
